For data set [1], the system named is Methicillin Resistant Staphylococcus aureus (MRSA, ATCC 33591). Kind of data set: Neutropaenic mouse thigh infection model. To be noted: for antimicrobial effect in thigh infection: IV at 5, 10, 20, 30 and 40 mg/Kg×2. The data set is classed as in vivo. On the procedure:
In vivo efficacy of compounds of the present invention in the treatment of bacterial tissue infections was evaluated using a neutropaenic mouse thigh model. Groups of 6 male ICR mice weighing 24±2 g were used. Test animals were immunosuppressed by 2 intraperitoneal injections of cyclophosphamide, the first at 150 mg/Kg 4 days before infection (day-4) and the second at 100 mg/Kg 1 day before infection (day-1). On day 0, individual animals were inoculated intramuscularly (IM) into the right thigh of test animals with 1.15×10^5 CFU/mouse of Methicillin Resistant Staphylococcus aureus (MRSA, ATCC 33591) suspended in 100 μL of sterile PBS, pH 7.4. Vehicle and test substances were administered intravenously (IV) at a dose volume of 8 mL/Kg, 2 and 14 hours after thigh infection. Example 1a (Compound I) and vancomycin were dissolved in 15% hydroxypropyl-β-cyclodextrin/4.4% glucose/1 mM potassium phosphate buffer, pH 7.0 and administered at doses of 5, 10, 20, 30 and 40 mg/Kg. At 26 hours after inoculation, muscle of the right thigh of each test mouse was harvested. From an additional group with no treatment, muscle of the right thigh was harvested at 2 hours after inoculation for the basal CFU determination. The removed muscle tissues were then homogenized in 3-4 mL of PBS, pH 7.4 with a ceramic mortar. Homogenates of 0.1 mL were used for serial 10-fold dilutions and plated on Mueller Hinton broth in 1.5% Bacto agar for CFU determination.

The nature of data set [2]: In vivo plasma half-life in mice. To be noted: mouse, 29.76 mg/kg, male CD-1 mice, IV, 9.3 mL/Kg of 3.2 mg/mL solution. On the procedure: The in vivo half-life of Example 1a in mice was determined by measurement of its plasma concentrations at various time points following IV dosing. 18 male CD-1 mice aged 7-9 weeks were dosed IV with a 9.3 mL/Kg dose of a 3.2 mg/mL solution of Example 1a in 15% hydroxyl-propyl-β-cyclodextrin/4.4% glucose/1 mM potassium phosphate (pH=7.6). Plasma samples were obtained at 10, 20, 30, 60, 120 and 240 min post-dose, sampling from 3 animals at each time point. Concentrations of Example 1a in plasma were determined by LC-MS quantification.

The test system of data set [3] is Staphylococcus aureus methicillin resistant ATCC 33591. The experiment in a line: Mouse bacteraemia model. Format: in vivo. On the procedure: Groups of 6 male CD-1 (Crl.) derived mice weighing 24±2 g were used. Mice were inoculated intraperitoneally (IP) with an LD90-100 of Staphylococcus aureus methicillin resistant ATCC 33591 (1.1×10^7CFU/mouse) in 0.5 mL of BHI broth containing 5% mucin. The compound of example 1a and vancomycin were dissolved in 15% HPbetaCD/4.4% glucose/0.5 mM KH2PO4, pH 5.0 at doses of 1, 3, 5, 10 and 20 mg/Kg and were administered subcutaneously (SC) to test animals at 0, 2 and 24 hour(s) after bacteria challenge. The dosing volume was 5 mL/Kg. Mortality was recorded once daily for 7 days. The ED50 for each compound was determined by nonlinear regression.

The test system of another data set is E. faecalis. Kind of data set: MIC susceptibility testing, vancomycin resistant Enterococci (E. faecalis). Format: cell-based. As to conditions: E. faecalis 9758512, vancomycin resistant. Here is the method:
(§1) Susceptibility testing with the exception of Streptococcus pneumoniae was performed by two-fold serial dilutions in Mueller Hinton Broth supplemented with 50 μg/mL Ca^2+. Susceptibility testing of S. pneumoniae was performed by two-fold serial dilutions in Brain-Heart-Infusion Broth supplemented with 50 μg/mL Ca^2+.

The test system of another data set is Streptococcus pneumoniae. The experiment in a line: microbe, parasite or virus in culture. Format: cell-based. Here is the method: as §1
The test system of the next data set is E. faecium. The experiment in a line: MIC susceptibility testing, vancomycin resistant Enterococci (E. faecium). The data set is classed as cell-based. On the procedure:
as §1

Consider three compounds from patent US8729031B2, “Compounds” (priority 2009, dated 2014).

Usually half-life stands for the time in which the quantity being followed falls by half. A word on the ED50: it is the dose at which the effect has come halfway, by size or by number of responders.

≈ marks a conversion by molar mass, not a printed value.

For `CC[C@H](C)[C@@H]1NC(=O)[C@@H]2NC(=O)[C@H](CC(C)C)NC(=O)[C@H](NC(=O)[C@@H]3CSC[C@@H](N)C(=O)N[C@@H](CO)C(=O)NCC(=O)N[C@@H](Cc4c[nH]c5ccccc45)C(=O)N[C@@H](C(C)C)C(=O)N3)[C@H](C)SC[C@H](NC(=O)[C@H](CCC(=O)O)NC1=O)C(=O)NCC(=O)N[C@H]1C(=O)N[C@@H](CC(C)C)C(=O)N[C@@H](C(C)C)C(=O)N[C@@H](CS[C@H]2C)C(=O)N[C@@H](C)C(=O)N[C@H](C(=O)NCc2cc(Cl)cc(Cl)c2)CS[C@H]1C` [Example 1a], the “antimicrobial effect in thigh infection” value in data set [1] is on record as “significant antimicrobial effect”. Further, the “reduction in CFU/g” value in data set [1] (IV ×2 (2 and 14 h), 10 mg/kg and above, thigh muscle at 26 h) is given as over 1000 fold. The half-life in data set [2] is about 2 h. The compound further returned a survival rate in data set [3] (3 mg/Kg, SC) of 100%. In data set [3] (3, 5, 10 and 20 mg/Kg×3, SC), the “antimicrobial effect against S. aureus (MR) in mice” value is reported as “significant antimicrobial effect” and the “increase in survival rate” value was “at least 50%”. Also, the “estimated ED50” value in data set [3] (SC at 0, 2 and 24 h after challenge, mortality over 7 days, nonlinear regression) is 1.07 mg/kg.

Regarding `CC[C@H](C)[C@@H]1NC(=O)[C@@H]2NC(=O)[C@H](CC(C)C)NC(=O)[C@H](NC(=O)[C@@H]3CSC[C@@H](N)C(=O)N[C@@H](CO)C(=O)NCC(=O)N[C@@H](Cc4c[nH]c5ccccc45)C(=O)N[C@@H](C(C)C)C(=O)N3)[C@H](C)SC[C@H](NC(=O)[C@H](CCC(=O)O)NC1=O)C(=O)NCC(=O)N[C@H]1C(=O)N[C@@H](CC(C)C)C(=O)N[C@@H](C(C)C)C(=O)N[C@@H](CS[C@H]2C)C(=O)N[C@@H](C)C(=O)N[C@H](C(=O)NCc2cc(Cl)cc(Cl)c2)CS[C@H]1C` [Example 1, Deoxyactagardine B (3,5-dichlorobenzylamine)monocarboxamide], the MIC against E. faecalis is 8 µg/mL (≈ 3.94 µM); against Streptococcus pneumoniae (isolate QB37301, penicillin Resistant), 2 µg/mL (≈ 0.984 µM); with Streptococcus pneumoniae (isolate QB37302, penicillin Resistant), 1 µg/mL (≈ 0.492 µM); in the data set on Streptococcus pneumoniae (isolate QB37303, penicillin Intermediate), 0.25 µg/mL (≈ 0.123 µM); with Streptococcus pneumoniae (isolate QB37304, penicillin Susceptible), 0.25 µg/mL (≈ 0.123 µM); in the data set on Streptococcus pneumoniae (isolate QB37305, penicillin Susceptible) it was 1 µg/mL (≈ 0.492 µM). The MIC against Streptococcus pneumoniae (isolate QB37306, penicillin Susceptible) was 0.25 to 0.5 µg/mL; against Streptococcus pneumoniae (isolate QB37307, penicillin Intermediate), 0.5 to 1 µg/mL; against Streptococcus pneumoniae (isolate QB37308, penicillin Susceptible) it was 0.25 to 0.5 µg/mL; in the data set with Streptococcus pneumoniae (isolate QB37309, penicillin Resistant), 2 µg/mL (≈ 0.984 µM); against Streptococcus pneumoniae (isolate QB37310, penicillin Resistant), 0.25 µg/mL (≈ 0.123 µM); in the data set with Streptococcus pneumoniae (isolate QB37311, penicillin Resistant) it was 0.03 µg/mL (≈ 0.0148 µM). Further, the MIC against Streptococcus pneumoniae (isolate QB37312, penicillin Intermediate) amounted to 0.5 µg/mL (≈ 0.246 µM); against Streptococcus pneumoniae (isolate QB37313, penicillin Susceptible), 0.03 µg/mL (≈ 0.0148 µM); against Streptococcus pneumoniae (isolate QB37314, penicillin Resistant), 1 µg/mL (≈ 0.492 µM); in the data set on Streptococcus pneumoniae (isolate QB37315, penicillin Susceptible), 0.25 µg/mL (≈ 0.123 µM); in the data set on Streptococcus pneumoniae (isolate QB37316, penicillin Susceptible) it was 2 µg/mL (≈ 0.984 µM); against Streptococcus pneumoniae (isolate QB37317, penicillin Susceptible), 0.25 µg/mL (≈ 0.123 µM). In addition, the MIC was 0.25 µg/mL (≈ 0.123 µM) with Streptococcus pneumoniae (isolate QB37318, penicillin Resistant); 1 µg/mL (≈ 0.492 µM) against Streptococcus pneumoniae (isolate QB37319, penicillin Resistant); 1 µg/mL (≈ 0.492 µM) against Streptococcus pneumoniae (isolate QB37320, penicillin Intermediate); 8 µg/mL (≈ 3.94 µM) in the data set with E. faecium (E. faecium 7662769, vancomycin resistant); 4 to 8 µg/mL with E. faecium (E. faecium 7860190, vancomycin resistant); 8 µg/mL (≈ 3.94 µM) in the data set on E. faecium (E. faecium 9710577, vancomycin resistant).

`CN[C@H](CC(C)C)C(=O)N[C@H]1C(=O)N[C@@H](CC(N)=O)C(=O)N[C@H]2C(=O)N[C@H]3C(=O)N[C@H](C(=O)N[C@H](C(=O)O)c4cc(O)cc(O)c4-c4cc3ccc4O)[C@H](O)c3ccc(c(Cl)c3)Oc3cc2cc(c3O[C@@H]2O[C@H](CO)[C@@H](O)[C@H](O)[C@H]2O[C@H]2C[C@](C)(N)[C@H](O)[C@H](C)O2)Oc2ccc(cc2Cl)[C@H]1O` [vancomycin, reference compound]: the “antimicrobial effect in thigh infection” value in data set [1] is “significant antimicrobial effect”. Also, the “reductions of CFU/g” value in data set [1] (IV ×2 (2 and 14 h), 30 mg/kg and above, thigh muscle at 26 h) is reported as over 100 fold. For the same compound, the “antimicrobial effect against S. aureus (MR) in mice” value in data set [3] (3, 5, 10 and 20 mg/Kg×3, SC) is “significant antimicrobial effect”. In data set [3] (Staphylococcus aureus, ATCC33591, SC at 0, 2 and 24 h after challenge, mortality over 7 days, nonlinear regression, read-out: estimated ED50), the median effective dose (ED50) was 3 mg/kg.
